# Measured values from patent US9637470B2, “Treatment for substance use disorders and stress disorders” (Baylor College of Medicine, priority 2013, dated 2017).
# “Also recorded” adds a separate entry of the source.
# Tests used:
# [1] = biological target: T1, serotonin transporter (Rattus norvegicus, UniProt P31652); test: Monoamine uptake into rat synaptosomes, serotonin; assay type: biochemical
# T1 construct: from tissue; host or cells: rat synaptosomes
# [2] = biological target: T2, dopamine transporter (Rattus norvegicus, UniProt P23977); test: Monoamine uptake into rat synaptosomes, dopamine; assay type: biochemical
# T2 construct: from tissue; host or cells: rat synaptosomes
# [3] = biological target: σ1 (Homo sapiens, UniProt Q99720); test: Receptor binding studies, sigma σ1; conditions: at 10 uM
# Text: Binding at σ1 is not problematic, as SSRIs are known to have similar activities.
# [4] = Metabolic stability in hepatocytes; assay type: in vitro ADME, human
# [5] = PK, distribution and excretion in rat; assay type: in vivo; conditions: for half-life: in vivo
# [6] = PK parameters in dog; conditions: in vivo
# [7] = PK parameters in monkey; conditions: in vivo
# [8] = biological target: CYP450 1A2 (Homo sapiens, UniProt P05177); test: CYP450 inhibition, 1A2; assay type: in vitro ADME
# [9] = biological target: CYP450 2D6 (Homo sapiens, UniProt P10635); test: CYP450 inhibition, 2D6; assay type: in vitro ADME; conditions: at 10 uM
# [10] = system: CYP 2B6; test: CYP induction, 2B6; assay type: in vitro ADME
# [11] = system: CYP 3A4; test: CYP induction, 3A4; assay type: in vitro ADME
# [12] = biological target: hERG channel (Homo sapiens, UniProt Q12809); test: hERG channel inhibition; conditions: accompanied by offsetting inhibition of other ion channels
# [13] = Chronic (13 week) toxicity testing in dogs; conditions: dog, in vivo, read-out: no adverse effects level (NOAEL)
# [14] = system: rats; test: Respiratory testing in rats; assay type: in vivo, rat; conditions: up to 90 mg/kg
# [15] = system: healthy volunteers; test: Single ascending dose study in healthy volunteers; assay type: in vivo, human
# Method: A single ascending dose, double-blind, placebo controlled study enrolled 50 participants divided into 10 per dosing group. In each group of 10 volunteers, 7 received active medication and 3 received placebo. The doses tested were 10, 25, 75, 150, and 300 mg. […] Across most doses, the elimination half-life was […].
# [16] = system: Sprague-Dawley rats; test: Methamphetamine-induced locomotor activation in rats; assay type: in vivo, rat; conditions: for locomotor activity, EC2 alone versus saline: 30.0 mg/kg IP; for METH-induced locomotor activation: EC2 30.0 mg/kg IP + METH 1 mg/kg
# Text: Adult male Sprague-Dawley rats (n=5-6/group, Harlan Sprague-Dawley Inc., Indianapolis, Ind., USA) were used in this study. Rats were housed three per cage in polypropylene cages in a temperature- and humidity-controlled room maintained on a 12:12 light/dark cycle (lights on at 7:00). Food and water were available ad libitum. Protocols were approved by the Baylor College of Medicine Institutional Animal Care and Use Committee and followed the “Principles of Laboratory Animal Care” (NIH publication No. 85-23, revised 1996). Facilities were accredited by the American Association of Laboratory Animal Care.
# The TruScan photobeam activity system (Coulbourn Instruments, Allentown, Pa., USA) was used to measure horizontal and vertical distance traveled in centimeters (cm). This system includes a clear arena (16″L×16″W×15.5″D) that had two sets of infrared sensors with one located at floor level and the other 2.5″ above floor level. Data from beam breaks were tabulated and analyzed by a PC computer and using a Coulbourn Instruments software system (TruScan 2.03).
# Drug solutions were prepared fresh daily. To test the effects of EC2 on METH locomotor activation, groups of rats were administered vehicle (saline), METH (1 mg/kg), EC2 (30.0 mg/kg) and EC2+METH. Pretreatment time was 30 min for EC2.
# Testing began on the next day (day 1) and continued for the next five days. Rats were administered drugs according to group and immediately placed in the activity chambers for 60 min.
# Data were first assessed with normality (Shapiro-Wilk) and equal variance tests. Distance traveled (cm), which reflects ambulatory activity, and vertical distance (cm) were the primary dependent variables analyzed. Habituation locomotor activity (baseline habituation, HAB) was assessed using a One-Way ANOVA with treatment as the main factor, and Student-Newman-Keuls Method was used for post-hoc comparisons. […] Dunn's method was used for post-hoc multiple comparisons between groups. Data are presented as mean±SEM and significant p values set at <0.05.
# The preceding example was continued for 5 days. Data from day 5 passed normality and equal variance tests and were analyzed with One-Way ANOVA with treatment as the main factor. Post-hoc pairwise multiple comparison procedures were performed using Student-Newman Keuls Method was used to determine group differences. Data are presented as mean±SEM and significant p values set at <0.05.
# [17] = Human pharmacokinetic studies; conditions: in vivo, read-out: elimination half-life (converted)
# Method: These studies will use double-blind, placebo-controlled experimental designs. Human pharmacokinetic studies indicate that EC2 has an elimination half-life of approximately 7 hours, allowing twice daily dosing.
# [18] = system: micronucleus; test: Genotoxicity testing, micronucleus
# [19] = system: dogs; test: Telemetry studies in dogs (ECG, QT); conditions: doses up to 20 mg/kg
# [20] = system: rats; test: Self-administration in rats (abuse potential); conditions: doses up to 10 mg/kg/infusion, cocaine positive control
# [21] = system: humans; test: Positive subjective effects in humans (abuse potential)
# CYP450 2D6, sequence (P10635 whole entry): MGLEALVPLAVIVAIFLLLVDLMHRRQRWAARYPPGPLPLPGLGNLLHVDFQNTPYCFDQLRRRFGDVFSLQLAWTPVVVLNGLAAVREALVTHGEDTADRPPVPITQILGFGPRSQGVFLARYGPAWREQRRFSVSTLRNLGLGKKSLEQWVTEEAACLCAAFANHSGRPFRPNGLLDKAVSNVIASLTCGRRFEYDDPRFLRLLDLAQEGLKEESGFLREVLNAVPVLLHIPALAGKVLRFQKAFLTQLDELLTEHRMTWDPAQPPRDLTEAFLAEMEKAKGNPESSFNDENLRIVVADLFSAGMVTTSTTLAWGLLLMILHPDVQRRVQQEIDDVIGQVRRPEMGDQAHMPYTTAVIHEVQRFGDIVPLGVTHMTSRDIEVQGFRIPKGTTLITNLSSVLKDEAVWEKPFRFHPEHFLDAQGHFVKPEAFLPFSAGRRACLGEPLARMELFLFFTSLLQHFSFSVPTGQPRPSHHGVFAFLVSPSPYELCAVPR
# CYP450 1A2, sequence (P05177 whole entry): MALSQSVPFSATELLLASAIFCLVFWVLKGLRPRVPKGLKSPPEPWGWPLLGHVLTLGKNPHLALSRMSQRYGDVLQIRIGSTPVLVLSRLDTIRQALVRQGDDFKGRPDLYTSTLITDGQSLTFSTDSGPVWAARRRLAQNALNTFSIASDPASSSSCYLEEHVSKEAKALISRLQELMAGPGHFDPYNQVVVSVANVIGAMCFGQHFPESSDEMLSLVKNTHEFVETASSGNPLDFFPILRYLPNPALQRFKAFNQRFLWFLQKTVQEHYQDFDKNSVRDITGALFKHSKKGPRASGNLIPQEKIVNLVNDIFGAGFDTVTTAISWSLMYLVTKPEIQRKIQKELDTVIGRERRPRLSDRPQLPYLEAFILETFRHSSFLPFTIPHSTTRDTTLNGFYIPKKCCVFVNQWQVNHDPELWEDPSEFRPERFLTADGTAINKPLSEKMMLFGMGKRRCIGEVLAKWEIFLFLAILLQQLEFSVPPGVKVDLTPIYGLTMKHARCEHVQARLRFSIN
# T1 sequence (P31652 whole entry): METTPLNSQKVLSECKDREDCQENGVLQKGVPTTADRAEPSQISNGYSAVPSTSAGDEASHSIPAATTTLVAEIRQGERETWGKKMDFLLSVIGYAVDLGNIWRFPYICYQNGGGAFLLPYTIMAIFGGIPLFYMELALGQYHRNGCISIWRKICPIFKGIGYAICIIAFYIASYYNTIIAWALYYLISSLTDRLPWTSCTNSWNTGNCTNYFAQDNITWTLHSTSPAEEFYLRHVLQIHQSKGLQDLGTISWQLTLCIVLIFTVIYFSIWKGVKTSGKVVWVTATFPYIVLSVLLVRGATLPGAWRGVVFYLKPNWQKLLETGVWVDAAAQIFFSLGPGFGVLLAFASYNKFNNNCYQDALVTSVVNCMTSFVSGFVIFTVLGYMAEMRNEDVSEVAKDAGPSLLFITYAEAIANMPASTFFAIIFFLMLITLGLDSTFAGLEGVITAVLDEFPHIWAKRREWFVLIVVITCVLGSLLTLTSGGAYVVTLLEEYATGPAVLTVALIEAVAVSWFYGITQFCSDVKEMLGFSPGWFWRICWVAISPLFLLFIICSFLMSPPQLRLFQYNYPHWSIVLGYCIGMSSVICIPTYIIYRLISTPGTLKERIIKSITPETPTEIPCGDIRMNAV
# T2 sequence (P23977 whole entry): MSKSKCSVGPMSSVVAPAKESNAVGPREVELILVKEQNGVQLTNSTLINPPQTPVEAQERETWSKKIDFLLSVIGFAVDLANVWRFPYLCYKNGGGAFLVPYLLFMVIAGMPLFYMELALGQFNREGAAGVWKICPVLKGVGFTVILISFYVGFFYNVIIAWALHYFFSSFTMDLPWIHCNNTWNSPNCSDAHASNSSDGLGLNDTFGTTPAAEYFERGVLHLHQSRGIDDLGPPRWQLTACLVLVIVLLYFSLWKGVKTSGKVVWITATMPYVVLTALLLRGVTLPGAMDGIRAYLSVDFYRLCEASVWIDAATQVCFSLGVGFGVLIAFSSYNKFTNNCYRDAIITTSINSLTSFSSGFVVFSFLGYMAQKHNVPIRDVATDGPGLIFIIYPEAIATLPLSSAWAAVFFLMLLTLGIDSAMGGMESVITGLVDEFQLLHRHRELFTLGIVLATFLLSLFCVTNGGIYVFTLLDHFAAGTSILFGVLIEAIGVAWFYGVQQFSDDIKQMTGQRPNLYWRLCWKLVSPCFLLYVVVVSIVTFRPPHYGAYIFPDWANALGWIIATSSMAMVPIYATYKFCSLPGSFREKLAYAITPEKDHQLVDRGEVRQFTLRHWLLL
# σ1, sequence (Q99720 whole entry): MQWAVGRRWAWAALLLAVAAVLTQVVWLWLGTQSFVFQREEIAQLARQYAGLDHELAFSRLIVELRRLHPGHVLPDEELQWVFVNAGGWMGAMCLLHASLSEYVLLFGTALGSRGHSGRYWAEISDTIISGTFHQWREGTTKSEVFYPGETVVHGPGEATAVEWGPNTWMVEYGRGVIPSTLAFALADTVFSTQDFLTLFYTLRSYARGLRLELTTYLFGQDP
# hERG channel, sequence (Q12809 whole entry): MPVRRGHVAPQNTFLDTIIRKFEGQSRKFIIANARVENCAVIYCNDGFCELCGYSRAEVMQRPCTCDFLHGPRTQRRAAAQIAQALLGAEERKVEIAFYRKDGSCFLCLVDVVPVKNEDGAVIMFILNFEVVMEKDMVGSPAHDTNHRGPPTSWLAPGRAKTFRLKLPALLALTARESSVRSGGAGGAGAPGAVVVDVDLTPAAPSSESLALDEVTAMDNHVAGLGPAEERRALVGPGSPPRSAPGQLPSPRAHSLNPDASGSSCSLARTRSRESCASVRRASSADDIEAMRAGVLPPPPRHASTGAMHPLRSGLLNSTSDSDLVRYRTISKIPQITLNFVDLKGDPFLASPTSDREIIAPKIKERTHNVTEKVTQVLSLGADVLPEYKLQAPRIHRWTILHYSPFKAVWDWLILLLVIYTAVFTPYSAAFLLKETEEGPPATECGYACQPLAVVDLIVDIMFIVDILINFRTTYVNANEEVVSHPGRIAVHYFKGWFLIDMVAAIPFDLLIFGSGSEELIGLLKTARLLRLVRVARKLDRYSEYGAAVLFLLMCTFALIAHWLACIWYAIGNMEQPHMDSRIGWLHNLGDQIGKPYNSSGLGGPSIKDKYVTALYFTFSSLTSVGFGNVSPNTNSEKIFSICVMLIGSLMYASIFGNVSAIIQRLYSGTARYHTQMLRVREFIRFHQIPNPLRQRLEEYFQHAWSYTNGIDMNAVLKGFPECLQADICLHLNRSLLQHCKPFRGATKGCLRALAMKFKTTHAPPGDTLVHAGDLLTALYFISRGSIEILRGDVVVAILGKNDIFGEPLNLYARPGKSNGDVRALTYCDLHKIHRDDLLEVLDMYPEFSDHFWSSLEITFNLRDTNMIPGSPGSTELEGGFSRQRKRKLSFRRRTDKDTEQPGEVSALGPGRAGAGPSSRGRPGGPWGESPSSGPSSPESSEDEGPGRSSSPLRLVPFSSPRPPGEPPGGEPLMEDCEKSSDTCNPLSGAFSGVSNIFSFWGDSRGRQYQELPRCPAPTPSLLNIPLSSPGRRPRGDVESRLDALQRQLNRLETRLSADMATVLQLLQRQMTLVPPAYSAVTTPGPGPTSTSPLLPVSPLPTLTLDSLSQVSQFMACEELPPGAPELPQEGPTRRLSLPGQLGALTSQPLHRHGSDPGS
smiles,measurement,setting,value
"c1ccc2cc([C@H]([C@H]3CCCNC3)n3ncnn3)ccc2c1 [Example Compound 2, (3S)-3-[(S)-naphthalen-2-yl(2H-tetrazol-2-yl)methyl]piperidine]",IC50,[1],0.037 µM
same,IC50,[2],0.074 µM
same,inhibition of binding at σ1,[3],74 % inhibition
same,metabolic stability,[4],high
same,Kp,"[5]; brain, rat, after oral dosing, read-out: AUC ratio (brain/plasma)",0.45
same,accumulation in tissue,"[5]; rat, after oral administration",does not accumulate; also recorded: without significant accumulation
same,tissue distribution,"[5]; rat, after oral administration",widely distributed across most tissues
same,half-life,"[5]; rat, T1/2",3.7 h
same,half-life,"[5]; rat, po, elimination half-life in brain",12.6 h
same,half-life,"[5]; rat, po, elimination half-life in plasma",5 h
same,route of excretion,[5]; rodents,mainly excreted in feces
same,half-life,[6],2 h
same,bioavailability,"[6]; po, dogs",45%
same,half-life,[7],5.8 h
same,bioavailability,"[7]; po, monkeys",10%
same,inhibition of CYP450 1A2,[8],does not inhibit
same,inhibition of CYP450 2D6,[9],does inhibit
same,induction of CYP 2B6,[10],does not induce
same,induction of CYP 3A4,[11],does not induce
same,hERG channel inhibition,[12],moderate
same,NOAEL at 13 week,[13],6 mg/kg
same,respiratory testing,[14],negative
same,plasma concentration versus dose,"[15]; single dose 10, 25, 75, 150, and 300 mg",proportional to dose
same,primary adverse effects,"[15]; single dose, increasing in prevalence at 75 mg and higher","nausea, dizziness, and headache"
same,safety,[15]; single doses up to 300 mg,safe
same,"locomotor activity, EC2 alone versus saline","[16]; day 5, both activity measures",did not differ from saline
same,"locomotor activity, EC2 alone versus saline","[16]; over 5 days, both activity measures",did not differ from saline
same,METH-induced locomotor activation,"[16]; day 5, more apparent on vertical distance",significantly attenuated
same,METH-induced locomotor activation,"[16]; over 5 days, more apparent on vertical distance",significantly attenuated
same,half-life,[17],~7 h
same,"genotoxicity, micronucleus",[18],negative
same,effects on ECG or QT,[19],no effects
same,self-administration,[20],not self-administered
same,positive subjective effects in humans,[21],does not produce positive subjective effects
